Measurements published in patent US20260256792A1, “TREATMENT OF CHRONIC SPONTANEOUS URTICARIA BY ADMINISTERING (R)-2-[3-[4-AMINO-3-(2-FLUORO-4-PHENOXY-PHENYL)PYRAZOLO[3,4-D]PYRIMIDIN-1-YL]PIPERIDINE-1-CARBONYL]-4-METHYL-4-[4-(OXETAN-3-YL)PIPERAZIN-1-YL]PENT-2-ENENITRILE” (priority 2023, published 2026).

Tested on: moderate-to-severe chronic spontaneous urticaria (CSU)
Assay: Phase 2 CSU study: itch severity score over 7 days (ISS7)
Type: in vivo, human
Conditions: for Change from Baseline in ISS7 at Week 12, LS Mean / Change from Baseline in ISS7 at Week 12, LS Mean Diff vs. placebo / Change from Baseline in ISS7 at Week 12, Mean: Omalizumab-naïve population; for ISS7 change from baseline at Week 12, LS Mean / ISS7 change from baseline at Week 12, LS Mean Diff vs. placebo: ANCOVA
Excerpt: The study comprises a 12 week, randomized, double-blind, placebo-controlled, multi-center, dose-ranging efficacy and safety phase, followed by a 40 week open label extension (OLE) phase (see FIG. 1). The study consists of three phases and an optional OLE phase. […] Clinically, CSU is characterized by the spontaneous and recurrent appearance of pruritic hives. The proposed primary endpoints were the UAS7 at Week 12 in EU and EU reference countries and the ISS7 in the US. Regardless of where a participant was from, all assessments were the same. The UAS7 score is a composite score containing both the HSS7 and the ISS7. This allowed a global assessment of the two key components of urticaria: hives and itch. […] The UAS is a validated PRO measure. […] The daily UAS scores range from 0 to 6 point/day. […] Patients were to complete the UAS using the e-diary. […] The following secondary endpoints were to be analyzed using the same approach as for the primary endpoint: • Change from baseline in UAS7 at Week 4 • Change from baseline in UAS7 at Week 12 (for US and US reference countries) • Change from baseline in ISS7 at Week 12 (except US and US reference countries) • Change from baseline in HSS7 at Week 12

[1] = 400 mg QPM, Duration of disease (years) <2
[2] = 400 mg QPM, Duration of disease (years) >10
[3] = 400 mg QPM, Ethnicity Non-Hispanic
[4] = 400 mg QPM, History of angioedema No
[5] = 400 mg QPM, History of angioedema Yes
[6] = 400 mg QPM, Race All the Others
[7] = 400 mg QPM, Region Eastern Europe
[8] = 400 mg QPM, Region Latin America
[9] = 400 mg QPM, Region Western Countries
[10] = 400 mg QPM, omalizumab-naïve population
[11] = 400 mg QPM, omalizumab-naïve population with outlier removed
[12] = 400 mg TID, Age group (years) <44 (Median)
[13] = 400 mg TID, Age group (years) <65
[14] = 400 mg TID, Age group (years) ≥44 (Median)
[15] = 400 mg TID, Baseline BHRA BHRA+
[16] = 400 mg TID, Baseline BHRA BHRA−
[17] = 400 mg TID, Baseline Eosinophils (10^9/L) <0.150
[18] = 400 mg TID, Baseline Eosinophils (10^9/L) <0.165 (Median)
[19] = 400 mg TID, Baseline Eosinophils (10^9/L) <0.3
[20] = 400 mg TID, Baseline Eosinophils (10^9/L) ≥0.150
[21] = 400 mg TID, Baseline Eosinophils (10^9/L) ≥0.165 (Median)
[22] = 400 mg TID, Baseline Eosinophils (10^9/L) ≥0.3
[23] = 400 mg TID, Baseline H1-antihistamines dose 1-fold
[24] = 400 mg TID, Baseline H1-antihistamines dose 2 to 4-fold standard dose

CC(C)(C=C(C#N)C(=O)N1CCC[C@@H](n2nc(-c3ccc(Oc4ccccc4)cc3F)c3c(N)ncnc32)C1)N1CCN(C2COC2)CC1 [rilzabrutinib, (R)-2-[3-[4-amino-3-(2-fluoro-4-phenoxy-phenyl)pyrazolo[3,4-d]pyrimidin-1-yl]piperidine-1-carbonyl]-4-methyl-4-[4-(oxetan-3-yl)piperazin-1-yl]pent-2-enenitrile]
Change from Baseline in ISS7 at Week 12, LS Mean [1]: −4.83 | Change from Baseline in ISS7 at Week 12, LS Mean Diff vs. placebo [1]: −1.18 | Change from Baseline in ISS7 at Week 12, Mean [1]: −5.46 | Change from Baseline in ISS7 at Week 12, LS Mean [2]: −0.20 | Change from Baseline in ISS7 at Week 12, LS Mean Diff vs. placebo [2]: 3.49 | Change from Baseline in ISS7 at Week 12, Mean [2]: −3.29 | Change from Baseline in ISS7 at Week 12, LS Mean (400 mg QPM, Ethnicity Hispanic): −4.19 | Change from Baseline in ISS7 at Week 12, LS Mean Diff vs. placebo (400 mg QPM, Ethnicity Hispanic): 2.82 | Change from Baseline in ISS7 at Week 12, Mean (400 mg QPM, Ethnicity Hispanic): −5.04 | Change from Baseline in ISS7 at Week 12, LS Mean [3]: −5.29 | Change from Baseline in ISS7 at Week 12, LS Mean Diff vs. placebo [3]: −0.82 | Change from Baseline in ISS7 at Week 12, Mean [3]: −6.12 | Change from Baseline in ISS7 at Week 12, Mean (400 mg QPM, Gender Female): −5.86 | Change from Baseline in ISS7 at Week 12, Mean (400 mg QPM, Gender Male): −5.20 | Change from Baseline in ISS7 at Week 12, LS Mean [4]: −4.56 | Change from Baseline in ISS7 at Week 12, LS Mean Diff vs. placebo [4]: 0.78 | Change from Baseline in ISS7 at Week 12, Mean [4]: −5.32 | Change from Baseline in ISS7 at Week 12, LS Mean [5]: −5.00 | Change from Baseline in ISS7 at Week 12, LS Mean Diff vs. placebo [5]: 0.25 | Change from Baseline in ISS7 at Week 12, Mean [5]: −6.31 | ISS7 at Week 12, Mean (400 mg QPM, ITT population): 11.37 | ISS7 at Week 12, Median (400 mg QPM, ITT population): 11.20 | ISS7 change from baseline at Week 12, Mean (400 mg QPM, ITT population): −5.95 | ISS7 change from baseline at Week 12, Median (400 mg QPM, ITT population): −5.67 | ISS7 change from baseline at Week 12, LS Mean (400 mg QPM, ITT population): −5.46 points | ISS7 change from baseline at Week 12, LS Mean Diff vs. placebo (400 mg QPM, ITT population): 0.85 | Change from Baseline in ISS7 at Week 12, LS Mean [6]: −4.94 | Change from Baseline in ISS7 at Week 12, LS Mean Diff vs. placebo [6]: −1.48 | Change from Baseline in ISS7 at Week 12, Mean [6]: −5.66 | Change from Baseline in ISS7 at Week 12, LS Mean (400 mg QPM, Race White): −4.41 | Change from Baseline in ISS7 at Week 12, LS Mean Diff vs. placebo (400 mg QPM, Race White): 1.60 | Change from Baseline in ISS7 at Week 12, Mean (400 mg QPM, Race White): −5.70 | Change from Baseline in ISS7 at Week 12, LS Mean (400 mg QPM, Region Asia): −5.17 | Change from Baseline in ISS7 at Week 12, LS Mean Diff vs. placebo (400 mg QPM, Region Asia): −1.72 | Change from Baseline in ISS7 at Week 12, Mean (400 mg QPM, Region Asia): −5.66 | Change from Baseline in ISS7 at Week 12, LS Mean [7]: −4.74 | Change from Baseline in ISS7 at Week 12, LS Mean Diff vs. placebo [7]: 7.93 | Change from Baseline in ISS7 at Week 12, Mean [7]: −5.54 | Change from Baseline in ISS7 at Week 12, LS Mean [8]: −5.19 | Change from Baseline in ISS7 at Week 12, LS Mean Diff vs. placebo [8]: 1.40 | Change from Baseline in ISS7 at Week 12, Mean [8]: −6.51 | Change from Baseline in ISS7 at Week 12, LS Mean [9]: −3.02 | Change from Baseline in ISS7 at Week 12, LS Mean Diff vs. placebo [9]: 1.53 | Change from Baseline in ISS7 at Week 12, Mean [9]: −4.61 | ISS7 at Week 12, Median [10]: 11.60 | ISS7 change from baseline at Week 12, Mean [10]: −5.69 | ISS7 change from baseline at Week 12, Median [10]: −5.33 | ISS7 at Week 12, Median [11]: 11.60 | ISS7 change from baseline at Week 12, Mean [11]: −5.69 | ISS7 change from baseline at Week 12, Median [11]: −5.33 | ISS7 change from baseline at Week 12, LS Mean [11]: −5.29 points | ISS7 change from baseline at Week 12, LS Mean Diff vs. placebo [11]: 0.42 | ISS7 change from baseline at Week 12, LS Mean [10]: −5.19 points | ISS7 change from baseline at Week 12, LS Mean Diff vs. placebo [10]: 0.58 | patients with improvement in the weekly ISS7 (400 mg TID arm): all patients except one showed improvement | Change from Baseline in ISS7 at Week 12, LS Mean [12]: −9.04 | Change from Baseline in ISS7 at Week 12, LS Mean Diff vs. placebo [12]: −4.56 | Change from Baseline in ISS7 at Week 12, LS Mean [13]: −8.63 | Change from Baseline in ISS7 at Week 12, LS Mean Diff vs. placebo [13]: −2.97 | Change from Baseline in ISS7 at Week 12, Mean [13]: −9.73 | Change from Baseline in ISS7 at Week 12, LS Mean [14]: −9.26 | Change from Baseline in ISS7 at Week 12, LS Mean Diff vs. placebo [14]: −2.66 | Change from Baseline in ISS7 at Week 12, Mean [14]: −10.16 | Change from Baseline in ISS7 at Week 12, Mean (400 mg TID, Age group (years) ≥65): −13.50 | Change from Baseline in ISS7 at Week 12, LS Mean [15]: −12.96 | Change from Baseline in ISS7 at Week 12, LS Mean Diff vs. placebo [15]: −7.58 | Change from Baseline in ISS7 at Week 12, Mean [15]: −12.42 | Change from Baseline in ISS7 at Week 12, LS Mean [16]: −8.82 | Change from Baseline in ISS7 at Week 12, Mean [16]: −9.91 | Change from Baseline in ISS7 at Week 12, LS Mean Diff vs. placebo (400 mg TID, Baseline BMI (kg/m^2) ≥30): −3.19 | Change from Baseline in ISS7 at Week 12, LS Mean [17]: −10.28 | Change from Baseline in ISS7 at Week 12, LS Mean Diff vs. placebo [17]: −3.50 | Change from Baseline in ISS7 at Week 12, LS Mean [18]: −10.22 | Change from Baseline in ISS7 at Week 12, LS Mean Diff vs. placebo [18]: −3.71 | Change from Baseline in ISS7 at Week 12, Mean [18]: −10.99 | Change from Baseline in ISS7 at Week 12, LS Mean [19]: −9.46 | Change from Baseline in ISS7 at Week 12, LS Mean Diff vs. placebo [19]: −3.99 | Change from Baseline in ISS7 at Week 12, Mean [19]: −10.61 | Change from Baseline in ISS7 at Week 12, LS Mean [20]: −8.30 | Change from Baseline in ISS7 at Week 12, LS Mean Diff vs. placebo [20]: −4.31 | Change from Baseline in ISS7 at Week 12, LS Mean [21]: −8.24 | Change from Baseline in ISS7 at Week 12, LS Mean Diff vs. placebo [21]: −4.16 | Change from Baseline in ISS7 at Week 12, Mean [21]: −9.55 | Change from Baseline in ISS7 at Week 12, LS Mean [22]: −8.12 | Change from Baseline in ISS7 at Week 12, LS Mean Diff vs. placebo [22]: −3.27 | Change from Baseline in ISS7 at Week 12, Mean [22]: −8.68 | Change from Baseline in ISS7 at Week 12, LS Mean [23]: −8.05 | Change from Baseline in ISS7 at Week 12, LS Mean Diff vs. placebo [23]: −1.22 | Change from Baseline in ISS7 at Week 12, Mean [23]: −8.88 | Change from Baseline in ISS7 at Week 12, LS Mean [24]: −11.00 | Change from Baseline in ISS7 at Week 12, LS Mean Diff vs. placebo [24]: −7.52
